Assay [1] concerns clinical cases of head injury. As to conditions: cited from earlier work.
In assay [2] the test system is animals receiving experimental in vivo head injury. As to conditions: cited from earlier work.
The next assay has as its system astroglial edema. As to conditions: cited from earlier work.
Assay [3] has as its system cat cerebrocortical tissue slices. In words: In vitro cat cerebrocortical tissue slice assay (HCO3^- -stimulated tissue swelling). It is filed as cell-based. As to conditions: Felis catus, read-out: percentage inhibition of tissue swelling (% Inhib.). The method, then:
Using the in vitro cat cerebrocortical tissue slice assay, described in Example 1, compounds of the present invention can be tested for activity. This test provides the principal in vitro evaluation and consists of a determination of concentration vs. response curve. The addition of HCO3^- to isotonic, K^+ -rich saline-glucose incubation media is known to specifically stimulate the transport of Cl^- coupled with Na^+ and an osmotic equivalent of water in incubating slices of mammalian cerebral cortex. […] After addition of drug to the incubation media, detailed drug concentration-response curves are then obtained. The data are expressed as percent HCO3^- -stimulated swelling vs. drug concentration, from which the concentration of drug providing 50% inhibition of HCO3^- -stimulated swelling (I50 in molarity) is interpolated.
Adult cats of 2-3 kg body weight are employed in tissue slice studies. Prior to sacrifice, the animals are anesthetized with ketamine hydrochloride (Ketaset), 10 mg/kg intramuscularly. Eight (three control, five experimental) pial surface cerebrocortical tissue slices (0.5-mm thick; approximately 150 mg initial fresh weight) are cut successively with a calibrated Stadie-Riggs fresh tissue microtome without moistening and weighed successively on a torsion balance. During the slice preparation all operations except weighing are confined to a humid chamber. Each slice is rapidly placed in an individual Warburg flask containing 2 ml of incubation medium at room temperature. The basic composition of the incubation media, in millimoles per liter, is as follows: glucose, 10; CaCl2, 1.3; MgSO4, 1.2; KHSO4, 1.2; Hepes (N-2-hydroxyethylpiperazine-N'-2-ethanesulfonic acid, titrated with NaOH to pH 7.4), 20. Except when adding HCO3^-, the osmolarity of the media is maintained isosmotic (approximately 285 mOsm/L) by reciprocal changes of Na^+ or K^+ to achieve a concentration of K^+ of 27 mM. The basic medium was saturated with oxygen by bubbling pure oxygen through the solution for 30 minutes before use. […]
Following the 60-minute incubation period, tissue slices are separated from incubation medium by filtration, reweighed, and homogenized in 1N HClO4 (10% w/v) for electrolyte analysis. […] Control slice swelling is expressed as microliters per gram initial preswelling fresh weight. The effectiveness of an inhibitor at a given concentration is measured by the amount of HCO3^- -stimulated swelling that occurred in its presence, computed as a percent of the maximum possible. Tissue and media Na^+ and K^+ levels are determined by emission flame photometry with Li^+ internal standard; Cl^- levels are determined by amperometric titration. Tissue viability during incubation is monitored by manometry.

This is an account of results in US4731470A, “[(5,6-dichloro-3-oxo-2,9a-alkano-2,3,9,9a-tetrahydro-1H-fluoren-7-yl)oxy] alkanoic acids and alkanimidamides” (Merck & Co., Inc., priority 1986, dated 1988).

What is called inhibition is the percentage by which the read-out fell short of the control.

Take `C=C(CC)C(=O)c1ccc(OCC(=O)O)c(Cl)c1Cl` [ethacrynic acid]: the “reducing mortality in clinical cases of head injury” value in assay [1] was “effective in reducing mortality”. Moreover, the “activity in in vivo assays” value in assay [2] is given as “exhibited activity”. The “activity in in vitro assays” value in the assay with astroglial edema is given as “exhibited activity”.

As to `O=C(O)COc1cc2c(c(Cl)c1Cl)C1=CC(=O)C3CCCC1(C2)C3` (racemic) [Example 2, [(5,6-Dichloro-3-oxo-2,9a-propano-2,3,9,9a-tetrahydro-1H-fluoren-7-yl)oxy]acetic acid], in assay [3] (conc. 10^-6 M), the inhibition at 1 µM came out at 81%. Further, the inhibition at 0.1 µM in assay [3] (conc. 10^-7 M) came to 54%. In addition, the inhibition at 0.01 µM in assay [3] (conc. 10^-8 M) came to 29%. The inhibition at 0.001 µM in assay [3] (conc. 10^-9 M) is 10%.
